In US10829473B2, “Modulators of the cystic fibrosis transmembrane conductance regulator protein and methods of use” (AbbVie Overseas S.Á.R.L., priority 2017, dated 2020):
Read-outs that look alike come from different tables or passages of the source. Marks after values point to notes of the source that are not given here.

Biological target: T1, F508delCFTR (Homo sapiens, UniProt P13569, DEL508-508)
T1 construct: expressed in transfected cells; host or cells: CFBE41o- human lung derived epithelial cells (CFBE41o-F508delCFTR-HRP), doxycycline-inducible
Test: Cell Surface Expression-Horse Radish Peroxidase (CSE-HRP) Assay;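 for EC50 (with co-corrector): co-corrector chromenyl benzoic acid corrector at 2 or 3 µM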;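 for Maximum % activity (without co-corrector): % of on-plate positive control chromenyl benzoic acid corrector at 2 or 3 µM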
Format: cell-based
Settings: for Maximum % activity (with co-corrector) / Emax: maximum at any tested concentration; for Emax: read-out: Maximum % activity (without co-corrector)
How it was run: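 Corrector compounds were given as 8-point 3-fold series from 20 or 30 μM, with or without a 2 μM co-corrector, for 18-24 h at 33 °C. Surface HRP was read by luminol luminescence as % of positive control; variable-Hill-slope sigmoidal fitting gave EC50 from triplicate plates.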

[1] = test compound alone, without co-corrector, read-out: EC50 (without co-corrector)
[2] = with co-corrector, read-out: EC50 (with co-corrector)
[3] = test compound with co-corrector
[4] = test compound with co-corrector, read-out: EC50 (with co-corrector)
[5] = test compound without co-corrector
[6] = test compound without co-corrector, read-out: EC50 (without co-corrector)

T1 sequence (P13569 with tags, fused parts or gaps DEL508-508): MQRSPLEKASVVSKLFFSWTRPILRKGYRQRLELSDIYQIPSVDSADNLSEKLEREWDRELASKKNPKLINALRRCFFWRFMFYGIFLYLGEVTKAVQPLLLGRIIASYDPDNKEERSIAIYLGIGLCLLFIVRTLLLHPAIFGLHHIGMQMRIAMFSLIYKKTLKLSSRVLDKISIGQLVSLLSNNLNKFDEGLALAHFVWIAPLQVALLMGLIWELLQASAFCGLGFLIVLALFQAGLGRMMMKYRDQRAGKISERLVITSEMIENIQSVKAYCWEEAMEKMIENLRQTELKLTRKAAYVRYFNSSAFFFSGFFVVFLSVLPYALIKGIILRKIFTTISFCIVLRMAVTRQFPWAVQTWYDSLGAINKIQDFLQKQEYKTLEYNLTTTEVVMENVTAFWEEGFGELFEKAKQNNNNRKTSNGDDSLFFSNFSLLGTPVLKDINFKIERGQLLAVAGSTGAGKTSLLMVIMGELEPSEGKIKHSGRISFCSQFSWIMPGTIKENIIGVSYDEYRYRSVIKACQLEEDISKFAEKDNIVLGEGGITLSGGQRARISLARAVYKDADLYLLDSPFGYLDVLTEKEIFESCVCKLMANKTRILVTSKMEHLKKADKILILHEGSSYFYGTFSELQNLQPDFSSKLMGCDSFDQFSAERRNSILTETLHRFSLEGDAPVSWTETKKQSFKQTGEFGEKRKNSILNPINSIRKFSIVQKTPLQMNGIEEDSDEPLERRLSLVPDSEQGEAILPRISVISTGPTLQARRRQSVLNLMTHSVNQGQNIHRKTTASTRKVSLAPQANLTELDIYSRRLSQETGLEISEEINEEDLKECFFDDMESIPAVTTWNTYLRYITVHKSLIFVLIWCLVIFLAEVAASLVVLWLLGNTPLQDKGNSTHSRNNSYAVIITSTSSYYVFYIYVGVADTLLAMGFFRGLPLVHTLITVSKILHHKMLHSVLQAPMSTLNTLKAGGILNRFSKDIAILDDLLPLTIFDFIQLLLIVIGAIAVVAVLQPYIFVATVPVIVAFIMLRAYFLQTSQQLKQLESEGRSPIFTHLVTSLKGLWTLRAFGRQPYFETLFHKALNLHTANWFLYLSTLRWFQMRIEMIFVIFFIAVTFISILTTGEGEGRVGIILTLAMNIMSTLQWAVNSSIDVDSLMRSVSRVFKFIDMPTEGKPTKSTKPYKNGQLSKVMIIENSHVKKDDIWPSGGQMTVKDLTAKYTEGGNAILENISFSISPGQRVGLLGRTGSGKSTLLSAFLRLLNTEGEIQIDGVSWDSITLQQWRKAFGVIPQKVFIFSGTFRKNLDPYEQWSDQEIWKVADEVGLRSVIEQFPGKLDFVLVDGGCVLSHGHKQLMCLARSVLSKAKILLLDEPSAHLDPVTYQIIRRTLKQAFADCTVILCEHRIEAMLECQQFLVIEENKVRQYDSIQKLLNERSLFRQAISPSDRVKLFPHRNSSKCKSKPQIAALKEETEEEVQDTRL

EC50 [1]	Maximum % activity (with co-corrector) (with co-corrector)	EC50 [2]	Emax (without co-corrector)	Maximum % activity (with co-corrector) [3]	EC50 [4]	Emax [5]	EC50 [6]	EC50 (with co-corrector) [3]	EC50 (without co-corrector) [5]	Structure (SMILES)
> 10 µM	++ (≥150 and <350)	> 10 µM	< 50%	–	–	–	–	–	–	COc1ccc(S(=O)(=O)NC(=O)C2(c3ccc(Cl)cc3Cl)CC2)cc1 [Example III-24, 1-(2,4-dichlorophenyl)-N-(4-methoxybenzene-1-sulfonyl)cyclopropane-1-carboxamide]
3 to 10 µM	+++ (≥350)	< 3 µM	> 150%	–	–	–	–	–	–	O=C(NS(=O)(=O)c1cccc2ncccc12)C1(c2ccccc2OC(F)(F)F)CCC1 [II-3]
< 3 µM	+++ (≥350)	< 3 µM	> 150%	–	–	–	–	–	–	Cc1ccc(O[C@H]2CCOC2)c(C2(C(=O)NS(=O)(=O)c3cccc4nc(C)ccc34)CC2)c1 [Example I-124, 1-(5-methyl-2-{[(3S)-oxolan-3-yl]oxy}phenyl)-N-(2-methylquinoline-5-sulfonyl)cyclopropane-1-carboxamide]
–	–	–	–	+++ (≥350)	3 to 10 µM	> 150%	3 to 10 µM	–	–	CCc1cnc(N2CCC(OC(C)C)CC2)c(C2(C(=O)NS(=O)(=O)c3cccc4ncccc34)CC2)c1 [GII-54, 1-(5-ethyl-2-{4-[(propan-2-yl)oxy]piperidin-1-yl}pyridin-3-yl)-N-(quinoline-5-sulfonyl)cyclopropane-1-carboxamide]
–	–	–	–	+++ (≥350)	< 3 µM	> 150%	< 3 µM	–	–	CC(C)COc1ncc(N2CCCC2)cc1C1(C(=O)NS(=O)(=O)c2cccc3[nH]ccc23)CC1 [Example GI-70, N-(1H-indole-4-sulfonyl)-1-[2-(2-methylpropoxy)-5-(pyrrolidin-1-yl)pyridin-3-yl]cyclopropane-1-carboxamide]
–	–	–	–	+++ (≥350)	< 3 µM	> 150%	3 to 10 µM	–	–	CCc1cnc(OCCOC)c(C2(C(=O)NS(=O)(=O)c3cccc4ncccc34)CC2)c1 [Example GI-112, 1-[5-ethyl-2-(2-methoxyethoxy)pyridin-3-yl]-N-(quinoline-5-sulfonyl)cyclopropane-1-carboxamide]
< 3 µM	+++ (≥350)	< 3 µM	> 150%	–	–	–	–	–	–	CCOC(C)(C)c1ccc(OC(F)F)c(C2(C(=O)NS(=O)(=O)c3cccc4nc(C)ccc34)CC2)c1 [II-107]
–	–	–	–	++ (≥150 and <350)	3 to 10 µM	> 150%	3 to 10 µM	–	–	CCc1cnc(N2CCCC2)c(C2(C(=O)NS(=O)(=O)c3cccc4c3CCCN4)CC2)c1 [GII-35, 1-[5-ethyl-2-(pyrrolidin-1-yl)pyridin-3-yl]-N-(1,2,3,4-tetrahydroquinoline-5-sulfonyl)cyclopropane-1-carboxamide]
–	–	–	–	+++ (≥350)	< 3 µM	> 150%	< 3 µM	–	–	CC(C)Oc1ccc(C2CCC2)nc1C1(C(=O)NS(=O)(=O)c2cccc3[nH]ccc23)CC1 [Example GI-38, 1-{6-cyclobutyl-3-[(propan-2-yl)oxy]pyridin-2-yl}-N-(1H-indole-4-sulfonyl)cyclopropane-1-carboxamide]
–	–	–	–	+ (<150)	> 10 µM	< 50%	> 10 µM	–	–	O=C(NS(=O)(=O)c1cccc2ncccc12)C1(c2ccc(C(F)(F)F)nc2Cl)CC1 [GIII-29]
< 3 µM	+++ (≥350)	< 3 µM	> 150%	–	–	–	–	–	–	COc1ccc2c(S(=O)(=O)NC(=O)C3(c4cc(C5CCC5)cnc4OCC(C)C)CC3)cccc2n1 [II-94]
> 10 µM	+ (<150)	> 10 µM	< 50%	–	–	–	–	–	–	O=C(OCc1ccccc1)N1CCC(S(=O)(=O)NC(=O)C2(c3ccc(Cl)c(Cl)c3)CC2)CC1 [Example III-70, benzyl 4-{[1-(3,4-dichlorophenyl)cyclopropane-1-carbonyl]sulfamoyl}piperidine-1-carboxylate]
3 to 10 µM	+++ (≥350)	3 to 10 µM	> 150%	–	–	–	–	–	–	CCOC(C)(C)c1ccc(OC(F)F)c(C2(C(=O)NS(=O)(=O)c3cccc4ncccc34)CC2)c1 [II-106]
< 3 µM	+++ (≥350)	< 3 µM	> 150%	–	–	–	–	–	–	COc1ncc(C(F)(F)F)cc1C1(C(=O)NS(=O)(=O)c2cccc3ccn(C)c23)CC1 [II-17]
–	–	–	–	++ (≥150 and <350)	–	< 50%	> 10 µM	++^a	–	Cc1cnc(N2CCOCC2)cc1C1(C(=O)NS(=O)(=O)c2cccc3ncccc23)CC1 [GII-8, 1-[5-methyl-2-(morpholin-4-yl)pyridin-4-yl]-N-(quinoline-5-sulfonyl)cyclopropane-1-carboxamide]
> 10 µM	+ (<150)	3 to 10 µM	< 50%	–	–	–	–	–	–	O=C(NS(=O)(=O)Cc1ccccc1)C1(c2ccc(Cl)cc2)CC1 [Example III-114, 1-(4-chlorophenyl)-N-(phenylmethanesulfonyl)cyclopropane-1-carboxamide]
–	–	–	–	+++ (≥350)	< 3 µM	> 150%	< 3 µM	–	–	Cc1cnc(OCC(C)C)c(C2(C(=O)NS(=O)(=O)c3cccc4nc(C)ccc34)CC2)c1 [Example GI-43, 1-[5-methyl-2-(2-methylpropoxy)pyridin-3-yl]-N-(2-methylquinoline-5-sulfonyl)cyclopropane-1-carboxamide]
< 3 µM	+++ (≥350)	< 3 µM	> 150%	–	–	–	–	–	–	COc1ccc(C2CCC2)cc1C1(C(=O)NS(=O)(=O)c2cccc3ncccc23)CC1 [Example I-17, 1-(5-cyclobutyl-2-methoxyphenyl)-N-(quinoline-5-sulfonyl)cyclopropane-1-carboxamide]
–	–	–	–	+++ (≥350)	< 3 µM	> 150%	< 3 µM	–	–	CC(C)Oc1ncc(N2CCCC2)cc1C1(C(=O)NS(=O)(=O)c2cccc3ncccc23)CC1 [Example GI-62, 1-{2-[(propan-2-yl)oxy]-5-(pyrrolidin-1-yl)pyridin-3-yl}-N-(quinoline-5-sulfonyl)cyclopropane-1-carboxamide]
–	–	–	–	++ (≥150 and <350)	–	< 50%	–	++^a	++^a	O=C(NS(=O)(=O)c1cccc2ncccc12)C1(c2ncc(C(F)(F)F)cc2Cl)CC1 [GIII-1]
< 3 µM	+++ (≥350)	< 3 µM	> 150%	–	–	–	–	–	–	COc1cc(C2CCC2)cc(OC)c1C1(C(=O)NS(=O)(=O)c2cccc3c2ccn3C)CC1 [II-65]
–	–	–	–	+++ (≥350)	< 3 µM	> 150%	< 3 µM	–	–	CC(C)Oc1cnc(OC(C)C)c(C2(C(=O)NS(=O)(=O)c3cccc4[nH]ccc34)CC2)c1 [Example GI-66, 1-{2,5-bis[(propan-2-yl)oxy]pyridin-3-yl}-N-(1H-indole-4-sulfonyl)cyclopropane-1-carboxamide]
–	–	–	–	+++ (≥350)	< 3 µM	> 150%	< 3 µM	–	–	COCCOc1ncc(C2CCC2)cc1C1(C(=O)NS(=O)(=O)c2cccc3ncccc23)CC1 [Example GI-111, 1-[5-cyclobutyl-2-(2-methoxyethoxy)pyridin-3-yl]-N-(quinoline-5-sulfonyl)cyclopropane-1-carboxamide]
> 10 µM	++ (≥150 and <350)	3 to 10 µM	< 50%	–	–	–	–	–	–	O=C(NS(=O)(=O)CCCCl)C1(c2ccc(Cl)cc2Cl)CC1 [Example III-108, N-(3-chloropropane-1-sulfonyl)-1-(2,4-dichlorophenyl)cyclopropane-1-carboxamide]
3 to 10 µM	+++ (≥350)	< 3 µM	> 150%	–	–	–	–	–	–	COc1ccc(C(C)(C)OC)cc1C1(C(=O)NS(=O)(=O)c2cccc3[nH]ccc23)CC1 [II-88]
3 to 10 µM	+++ (≥350)	3 to 10 µM	> 150%	–	–	–	–	–	–	COC(C)(C)c1ccc(OC(F)F)c(C2(C(=O)NS(=O)(=O)c3cccc4ncccc34)CC2)c1 [II-108]
3 to 10 µM	+++ (≥350)	3 to 10 µM	> 150%	–	–	–	–	–	–	[2H]C1(c2ccc(OC)c(C3(C(=O)NS(=O)(=O)c4cccc5ncccc45)CC3)c2)COC1 [Example III-129, 1-{2-methoxy-5-[(3-^2H)oxetan-3-yl]phenyl}-N-(quinoline-5-sulfonyl)cyclopropane-1-carboxamide]
< 3 µM	+++ (≥350)	< 3 µM	> 150%	–	–	–	–	–	–	CO[C@@H](C)COc1ccc(C)cc1C1(C(=O)NS(=O)(=O)c2cccc3nc(C)ccc23)CC1 [Example I-114, 1-{2-[(2S)-2-methoxypropoxy]-5-methylphenyl}-N-(2-methylquinoline-5-sulfonyl)cyclopropane-1-carboxamide]
< 3 µM	+++ (≥350)	< 3 µM	> 150%	–	–	–	–	–	–	Cc1ccc(OC(F)F)c(C2(C(=O)NS(=O)(=O)c3cccc4ncccc34)CC2)c1 [Example I-100, 1-[2-(difluoromethoxy)-5-methylphenyl]-N-(quinoline-5-sulfonyl)cyclopropane-1-carboxamide]
